# Measured values published in patent publication US20070167349A1, “Estrogen cancer therapy” (Cell Therapeutics, Inc., priority 2005, published 2007).
# How the values were obtained:
# [1] = tested on: HT-29 human CRC xenograft tumor model; assay: Effect of circulating estrogen on tumor growth; assay type: in vivo, female CD nu/nu mice; details: increased levels of estrogen, s.c. controlled release pellets 0.17, 0.36, 0.72 mg/60 days
# cathepsin B = assay: Cathepsin B activity assay in tumor homogenate (Z-Arg-Arg-AMC); assay type: in vivo; details: HT-29 tumors; increased levels of estrogen, s.c. pellets
# Protocol: Cathepsin B activity assay was performed as follows: proteins were extracted by homogenization in cathepsin B buffer in ratio of 1 ml of buffer per 100 mg of tissue. The test utilized the ability of cathepsin B to digest the synthetic substrate Z-Arg-Arg-AMC. Released AMC was determined fluorometrically at excitation wavelength 390 nm and emission wave-length 460 nm. The activity of cathepsin B was quantified versus an AMC standard curve.
# ERβ = molecular target: T1, ERβ (Homo sapiens, UniProt Q92731); assay: ERβ expression (western blot) and activation (RT-PCR of E-Cadherin, Id-2) in xenograft tumors; assay type: in vivo; details: HT-29 and H460 xenograft tumors, E2 supplements
# T1 construct: proteins were extracted by homogenization in RIPA buffer; from tissue; host or cells: HT-29 and H460 human xenograft tumours in female CD nu/nu mice
# T1 sequence (Q92731 whole entry): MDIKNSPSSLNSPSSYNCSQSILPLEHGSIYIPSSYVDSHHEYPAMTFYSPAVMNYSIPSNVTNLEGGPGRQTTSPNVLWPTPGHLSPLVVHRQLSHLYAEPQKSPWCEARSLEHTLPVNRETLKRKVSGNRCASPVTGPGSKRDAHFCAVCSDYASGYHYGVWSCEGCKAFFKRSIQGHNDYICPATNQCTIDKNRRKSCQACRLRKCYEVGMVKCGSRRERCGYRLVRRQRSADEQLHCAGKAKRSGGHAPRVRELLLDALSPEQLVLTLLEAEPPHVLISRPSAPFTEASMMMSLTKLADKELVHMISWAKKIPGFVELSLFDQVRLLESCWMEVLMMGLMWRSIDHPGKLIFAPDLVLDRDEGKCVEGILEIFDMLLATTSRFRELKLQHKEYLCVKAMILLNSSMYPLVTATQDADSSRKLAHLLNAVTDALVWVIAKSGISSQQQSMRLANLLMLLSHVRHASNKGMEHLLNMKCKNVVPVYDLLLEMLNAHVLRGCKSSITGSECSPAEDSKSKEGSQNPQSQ
# Protocol: ERα, ERβ, E-Cadherin and Id-2 gene expression was determined by RT-PCR, relating their RNA expression to that of GAPDH gene. Total RNA extracted from tumors was reversely transcribed by Thermoscript RT-PCR System (INVITROGEN). The cDNA generated was used as template for PCR with primers specific for ERα and β, E-Cadherin and Id-2.
# Western blot analysis was performed as follows: proteins were extracted by homogenization in RIPA buffer and their content was determined by Bio-Rad Protein Assay. Protein aliquots were separated by size on 10% SDS-PAGE and transferred to nitrocellulose membrane. Immunodetection was performed using: anti-ERa Polyclonal Ab (HC-20, Santa Cruz Biotechnologies), […] Polyclonal Ab (06-629, Upstate Biotechnologies), anti-α-Actin (Sigma), and anti-α-Tubulin (Santa CruzBiotechnologies).
# The effect of estradiol on ERβ expression in HT-29 human CRC and H460 human NSCLC was analyzed by western blot (FIGS. 9 and 10, respectively.).
# The effect of estradiol on ERβ activation in HT-29 human CRC and H460 human NSCLC cells was analyzed by RT-PCR, where increased expression of the E-Cadherin gene (in HT-29 cells) and increased expression of the Id-2 gene (in H460 cells) is indicative of ERP activation (FIGS. 11 and 12, respectively.).
# NSCLC [2] = assay: Phase III study (STELLAR 3): CT-2103/PPX + carboplatin vs paclitaxel + carboplatin, overall survival by estrogen level; assay type: in vivo, human; details: CT-2103 210 mg/m^2 + carboplatin AUC 6 vs paclitaxel 225 mg/m^2 + carboplatin AUC 6
# Text: The experiments and results presented in example 1 describe the correlation between estrogen levels and treatment with CT-2103 versus paclitaxel, as measured by overall survival (OS). The data depicted in FIGS. 1 and 2 were derived from a multinational, phase III, open-label study. […] Randomization was stratified to minimize potential imbalances between the 2 treatment arms. After they were selected for the study, patients were stratified by disease stage (IV vs other), gender, geographic location (US vs. Western Europe and Canada vs. rest of the world), and history of brain metastases (yes vs. no).
# From the initial sample set, a subset consisting of either high or low estrogen women was analyzed. […] Estrogen levels in women were determined by a competitive immunoassay (e.g., DPC […] 2000 Analyzer, NY; DPC […] Analyzer, Ireland). […]
# Patients received CT-2103/carboplatin or paclitaxel/carboplatin, by intravenous infusion, on day 1 of each 21-day cycle for a total of 6 cycles. Toxicities were evaluated at each patient visit. Hematology, clinical chemistry, and coagulation parameters were evaluated before and during the study period. […] The efficacy and safety outcomes of this study were monitored by an independent Data Monitoring Committee (DMC).
# Efficacy of the treatments was determined by evaluation of tumor burden according to RECIST. […]
# NSCLC [3] = assay: Composite analysis of two phase III studies (STELLAR 3 and STELLAR 4): survival by sex and age, PPX vs control; assay type: in vivo, human; details: for HR: PPX vs CONTROL
# Protocol: Two phase III studies, enrolling a total of 781 patients with NSCLC and a poor performance status (PS2), were conducted. […] In order to study the effect of sex and estrogen on survival among the various treatment groups, the results from both phase III clinical trials were combined and a composite analysis performed.
# Functional menopausal status was assigned based on age and pretreatment estradiol levels, when available. The study was a composite of results from both clinical studies.
# [4] = tested on: NCI-H460 human lung carcinoma; details: H460 tumor cells
# [5] = tested on: HT-29 human CRC xenograft tumor model; details: associated with increased cathepsin B activity (E2 supplemented)
# Protocol: Antitumor activity parameters were determined as follows: • 1. Tumor weight inhibition % (TWI %) equals 100 minus (TW of treated divided by TW of control) times 100, which was evaluated at day 60 from pellet implant. • 2. Tumor growth delay (TGD): TGD equals TG Treated minus TG Control, where TG is the mean time, in days, for the tumor to reach a weight of 1 gram (g). • 3. Log cell kill (LCK) was calculated by the formula: LCK equals ((TGD 1 g) divided by 3.32) times DT, where DT is the time (days) necessary for the tumor to double in volume, in control and experimental groups.
# Statistical analyses were performed using one-way ANOVA Bonferroni post test.
Compound,tumor weight [1],cathepsin B activity (cathepsin B),ERβ activation and/or expression (ERβ),overall survival (OS) (NSCLC [2]; women with postmenopausal (low) estrogen levels),overall survival (OS) (NSCLC [2]; women with premenopausal (high) estrogen levels),OS (NSCLC [3]; FEMALE) [days],HR (NSCLC [3]; FEMALE),OS (NSCLC [3]; MALE) [days],HR (NSCLC [3]; MALE),"OS (NSCLC [3]; women under 55 years of age, PPX vs control arm)",mechanism of uptake of intact PPX into the cellular compartment [4],PPX antitumor activity [5]
"C[C@]12CC[C@@H]3c4ccc(O)cc4CC[C@H]3[C@@H]1CC[C@@H]2O [17β estradiol, 17β Estradiol]",increases,increases,induce ERβ activation and/or expression,,,,,,,,,
paclitaxel poliglumex [PPX],,,,no apparent effect on survival,improved outcome,285,0.70,220,1.05,prolonged,"energy-dependent endocytosis, in a dose- and time-dependent manner",enhanced
